From patent US20070014803A1, “METHODS AND COMPOSITIONS FOR DIAGNOSIS AND TREATMENT OF VIRAL AND BACTERIAL INFECTIONS” (Arbor Vita Corporation, priority 2005, published 2007)
Where no end group is shown, it is not given here.

Key:
Assay in all cases: MATRIX screen against PDZ library (modified G assay)
Assay type in all cases: binding
Conditions in all cases: pre-incubation conditions
PAR3L d3 = molecular target: T1, PAR3L d3 (Homo sapiens, UniProt Q8TEW8)
T1 construct: made in house
Method: (§1) Matrix graphPeptides and proteins were tested in an array format constituting a near complete set (255) of all the different PDZ domains in the human genome. Each PDZ domain polypeptide was expressed as a recombinant GST-PDZ polypeptide in a commercial glutathione S-transferase tagged expression system. Specific binding of biotinylated-PL peptides to PDZ domain polypeptides was detected using streptavidin-HRP and TMB substrate. Similarly, specific binding of PL protein-MBP fusion proteins to PDZ domain polypeptides was visualized using biotinylated anti-MBP, streptavidin-HRP and TMB substrate. The relative strength of binding was analyzed and the strong and weak binders are shown for each PL. A PDZ protein that binds more strongly is preferable when used for capturing or identifying PL proteins.
(§2) Two different types of ELISA assays were used to test the HIV Peptides 1904 and 1905. The primary MATRIX screen against all PDZ proteins in the library was performed under pre-incubation conditions, which are a modification of the G assay. A pre-incubation assay incubates the peptide with the HRP-streptavidin before addition of the mixture to the PDZ-coated plate. The subsequent titrations of the peptide against the PDZs of interest were performed under normal ELISA G assay conditions. In normal conditions the peptide is incubated on the PDZ coated plate before the later addition of the HRP-streptavidin. The reagents and supplies for both assays are listed below, as well as the two different protocols.
(§3) The PRISM Matrix ELISA modified G Assay was also used for pre-incubation and for the MATRIX assay. The protocol was as follows.
(§4) 1. Coat plate with 100 μl of 5 μg/ml anti-GST, O/N @ 4° C.
(§5) 2. Dump contents out of plate and tap dry on paper towels
(§6) 3. Block with 200 μl Assay Buffer for 1 to 2 hrs at room temperature
(§7) 4. Prepare proteins in Assay Buffer
(§8) 5. Wash plate 3× with cold PBS*
(§9) 6. Add proteins at 50 μl per well, incubate 1 to 2 hrs at 4° C.
(§10) 7. Prepare peptides in Assay Buffer:
(§11) • Prepare peptides in half of volume need with double of desired concentration. • Dilute HRP (1:1000) in another half of volume (same volume with peptide) then mix with peptides. • Incubate the peptide-HRP mixtures for 20 minutes at RT 8. Wash plate 3× with cold PBS* 9. Add peptide-HRP mixtures at 50 μl per well (write time on plate) 10. Incubate at RT after last peptide has been added for exactly 30 minutes 11. Turn on plate reader and prepare files 12. Promptly wash plate 5× with room temperature PBS 13. Add 100 μl/well TMB substrate (write time on plate) 14. Incubate in dark at room temp for a maximum of 30 minutes 15. Stop reaction with 100 μl of 0.18M H2SO4, 30 min. after adding TMB 16. Take last reading at 450 nm soon after stopping reaction

Magi1 d1 = molecular target: T2, Magi1 d1 (Homo sapiens, UniProt Q96QZ7)
T2 construct: made in house
T2 sequence (Q96QZ7 with tags, fused parts or gaps): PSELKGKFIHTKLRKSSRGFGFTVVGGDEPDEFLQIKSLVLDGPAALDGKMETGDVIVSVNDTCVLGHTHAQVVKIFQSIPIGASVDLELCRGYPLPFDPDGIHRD
Method: as §1, §2, §3, §4, §5, §6, §7, §8, §9, §10, §11

INADL d3 = molecular target: T3, INADL d3 (Homo sapiens, UniProt Q8NI35)
T3 construct: made in house
T3 sequence (Q8NI35 with tags, fused parts or gaps): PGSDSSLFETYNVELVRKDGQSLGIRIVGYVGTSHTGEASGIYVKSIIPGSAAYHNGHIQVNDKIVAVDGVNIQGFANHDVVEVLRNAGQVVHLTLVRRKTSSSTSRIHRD
Method: as §1, §2, §3, §4, §5, §6, §7, §8, §9, §10, §11

KIAA0316 = molecular target: T4, KIAA0316 (Homo sapiens, UniProt Q14CM0, A161E)
T4 construct: made in house
T4 sequence (Q14CM0 with tags, fused parts or gaps A161E): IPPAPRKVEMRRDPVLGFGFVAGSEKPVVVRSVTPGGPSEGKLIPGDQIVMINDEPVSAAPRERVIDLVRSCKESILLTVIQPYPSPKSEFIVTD
Method: as §1, §2, §3, §4, §5, §6, §7, §8, §9, §10, §11

MUPP1d11 = molecular target: T5, MUPP1d11 (Homo sapiens, UniProt O75970)
T5 construct: made in house
T5 sequence (O75970 1716-1813): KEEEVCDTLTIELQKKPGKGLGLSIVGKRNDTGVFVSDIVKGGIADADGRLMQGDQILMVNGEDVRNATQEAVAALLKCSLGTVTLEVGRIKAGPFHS
Method: as §1, §2, §3, §4, §5, §6, §7, §8, §9, §10, §11

GORASP1 d1 = molecular target: T6, GORASP1 d1 (Homo sapiens, UniProt Q9BQQ3)
T6 construct: made in house
T6 sequence (Q9BQQ3 1-110): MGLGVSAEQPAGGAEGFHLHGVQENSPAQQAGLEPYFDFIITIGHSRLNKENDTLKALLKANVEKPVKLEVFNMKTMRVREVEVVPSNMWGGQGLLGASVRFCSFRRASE
Method: as §1, §2, §3, §4, §5, §6, §7, §8, §9, §10, §11

NOS1 = molecular target: T7, NOS1 (Homo sapiens, UniProt P29475)
T7 construct: made in house
T7 sequence (P29475 11-100): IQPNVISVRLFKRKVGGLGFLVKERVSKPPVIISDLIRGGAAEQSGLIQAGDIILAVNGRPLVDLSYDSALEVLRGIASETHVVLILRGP
Method: as §1, §2, §3, §4, §5, §6, §7, §8, §9, §10, §11

RIM2 = molecular target: T8, RIM2 (Homo sapiens, UniProt Q9UQ26)
T8 construct: made in house
T8 sequence (Q9UQ26 632-757): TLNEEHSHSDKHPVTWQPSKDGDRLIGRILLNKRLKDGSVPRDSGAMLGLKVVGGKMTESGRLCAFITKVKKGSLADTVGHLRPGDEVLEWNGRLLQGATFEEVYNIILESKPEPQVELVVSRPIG
Method: as §1, §2, §3, §4, §5, §6, §7, §8, §9, §10, §11

RhophilinLike = molecular target: T9, RhophilinLike (Homo sapiens, UniProt Q8TCX5)
T9 construct: made in house
T9 sequence (Q8TCX5 with tags, fused parts or gaps): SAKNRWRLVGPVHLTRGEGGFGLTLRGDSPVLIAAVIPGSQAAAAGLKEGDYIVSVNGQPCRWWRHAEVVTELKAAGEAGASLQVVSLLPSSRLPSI
Method: as §1, §2, §3, §4, §5, §6, §7, §8, §9, §10, §11

MUPP1d3 = molecular target: T10, MUPP1d3 (Homo sapiens, UniProt O75970)
T10 construct: made in house
T10 sequence (O75970 with tags, fused parts or gaps): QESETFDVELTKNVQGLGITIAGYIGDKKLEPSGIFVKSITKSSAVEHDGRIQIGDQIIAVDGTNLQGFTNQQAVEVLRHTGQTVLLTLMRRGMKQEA
Method: as §1, §2, §3, §4, §5, §6, §7, §8, §9, §10, §11

PAR6 beta = molecular target: T11, PAR6 beta (Homo sapiens, UniProt Q9BYG5)
T11 construct: made in house
T11 sequence (Q9BYG5 with tags, fused parts or gaps): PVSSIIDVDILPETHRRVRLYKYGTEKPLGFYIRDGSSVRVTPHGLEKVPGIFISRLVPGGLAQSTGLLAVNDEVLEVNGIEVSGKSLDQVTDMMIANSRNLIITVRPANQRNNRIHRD
Method: as §1, §2, §3, §4, §5, §6, §7, §8, §9, §10, §11

AIPC d1 = molecular target: T12, AIPC d1 (Homo sapiens, UniProt O15018)
T12 construct: made in house
T12 sequence (O15018 with tags, fused parts or gaps): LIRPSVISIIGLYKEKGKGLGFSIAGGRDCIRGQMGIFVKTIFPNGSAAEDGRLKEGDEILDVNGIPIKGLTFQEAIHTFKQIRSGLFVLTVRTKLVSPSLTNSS
Method: as §1, §2, §3, §4, §5, §6, §7, §8, §9, §10, §11

MINT1 d1, 2 = molecular target: T13, MINT1 d1, 2 (Homo sapiens, UniProt Q02410)
T13 construct: MINT1 d1, 2; made in house
T13 sequence (Q02410 651-828): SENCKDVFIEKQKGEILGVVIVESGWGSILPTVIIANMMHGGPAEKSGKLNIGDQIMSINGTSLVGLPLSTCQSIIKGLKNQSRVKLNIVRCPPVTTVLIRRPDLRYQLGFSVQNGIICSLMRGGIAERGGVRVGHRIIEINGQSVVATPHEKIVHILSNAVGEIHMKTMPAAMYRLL
Method: as §1, §2, §3, §4, §5, §6, §7, §8, §9, §10, §11

SITAC-18 d1 = molecular target: T14, SITAC-18 d1 (Homo sapiens, UniProt Q9H190)
T14 construct: made in house
T14 sequence (Q9H190 104-195): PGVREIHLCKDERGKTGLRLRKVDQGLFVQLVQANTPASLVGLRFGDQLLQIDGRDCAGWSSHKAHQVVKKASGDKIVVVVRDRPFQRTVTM
Method: as §1, §2, §3, §4, §5, §6, §7, §8, §9, §10, §11

SITAC-18 d2 = molecular target: T15, SITAC-18 d2 (Homo sapiens, UniProt Q9H190)
T15 construct: made in house
T15 sequence (Q9H190 with tags, fused parts or gaps): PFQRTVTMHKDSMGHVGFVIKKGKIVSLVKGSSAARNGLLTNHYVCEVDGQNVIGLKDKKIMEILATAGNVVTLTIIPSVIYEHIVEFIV
Method: as §1, §2, §3, §4, §5, §6, §7, §8, §9, §10, §11

ZO-1 d4 = molecular target: T16, ZO-1 d4 (Homo sapiens, UniProt Q07157)
T16 construct: ZO-1 d4; made in house
T16 sequence (Q07157 178-269 limits assumed): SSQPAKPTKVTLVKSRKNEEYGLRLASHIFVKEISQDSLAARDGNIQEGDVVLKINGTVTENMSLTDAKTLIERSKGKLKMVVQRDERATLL
Method: as §1, §2, §3, §4, §5, §6, §7, §8, §9, §10, §11

PICK1 F.L. = molecular target: T17, PICK1 F.L. (Homo sapiens, UniProt Q9NRD5)
T17 construct: PICK1 F.L; made in house
T17 sequence (Q9NRD5 whole entry): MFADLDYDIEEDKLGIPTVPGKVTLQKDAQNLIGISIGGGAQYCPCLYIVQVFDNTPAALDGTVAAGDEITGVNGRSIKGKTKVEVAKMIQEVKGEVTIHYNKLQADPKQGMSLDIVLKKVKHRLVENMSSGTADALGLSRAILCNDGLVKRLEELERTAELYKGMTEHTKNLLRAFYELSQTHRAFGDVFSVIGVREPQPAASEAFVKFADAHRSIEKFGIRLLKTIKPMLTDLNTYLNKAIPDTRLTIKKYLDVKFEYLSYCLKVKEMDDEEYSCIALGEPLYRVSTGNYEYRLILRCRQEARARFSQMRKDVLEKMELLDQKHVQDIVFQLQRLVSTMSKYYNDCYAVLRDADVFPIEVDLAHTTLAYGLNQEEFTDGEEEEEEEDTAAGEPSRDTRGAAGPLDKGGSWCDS
Method: as §1, §2, §3, §4, §5, §6, §7, §8, §9, §10, §11

Shank 1 = molecular target: T18, Shank 1 (Homo sapiens, UniProt Q9Y566)
T18 construct: made in house
T18 sequence (Q9Y566 with tags, fused parts or gaps): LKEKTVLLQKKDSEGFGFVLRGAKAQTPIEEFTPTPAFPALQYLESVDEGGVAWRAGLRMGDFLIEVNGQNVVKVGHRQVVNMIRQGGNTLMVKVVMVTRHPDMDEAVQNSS
Method: as §1, §2, §3, §4, §5, §6, §7, §8, §9, §10, §11

Shank 3 = molecular target: T19, Shank 3 (Homo sapiens, UniProt Q9BYB0)
T19 construct: made in house
T19 sequence (Q9BYB0 638-747): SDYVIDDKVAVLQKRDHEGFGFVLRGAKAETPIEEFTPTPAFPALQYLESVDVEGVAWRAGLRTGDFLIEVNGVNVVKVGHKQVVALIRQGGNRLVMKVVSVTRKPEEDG
Method: as §1, §2, §3, §4, §5, §6, §7, §8, §9, §10, §11

EBP50 d1 = molecular target: T20, EBP50 d1 (Homo sapiens, UniProt O14745)
T20 construct: made in house
T20 sequence (O14745 with tags, fused parts or gaps): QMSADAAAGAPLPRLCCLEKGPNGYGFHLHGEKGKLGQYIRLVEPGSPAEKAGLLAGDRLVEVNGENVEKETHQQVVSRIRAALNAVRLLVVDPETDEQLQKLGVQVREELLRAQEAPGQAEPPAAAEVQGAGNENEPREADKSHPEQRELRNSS
Method: as §1, §2, §3, §4, §5, §6, §7, §8, §9, §10, §11

Shank 2 = molecular target: T21, Shank 2 (Homo sapiens, UniProt Q9UPX8)
T21 construct: made in house
T21 sequence (Q9UPX8 with tags, fused parts or gaps): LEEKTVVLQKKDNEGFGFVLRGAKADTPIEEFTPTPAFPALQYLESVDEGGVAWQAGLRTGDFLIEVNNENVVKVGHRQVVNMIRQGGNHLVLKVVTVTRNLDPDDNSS
Method: as §1, §2, §3, §4, §5, §6, §7, §8, §9, §10, §11

EBP50 = molecular target: T22, EBP50 (Homo sapiens, UniProt O14745)
T22 construct: made in house
T22 sequence (O14745 whole entry): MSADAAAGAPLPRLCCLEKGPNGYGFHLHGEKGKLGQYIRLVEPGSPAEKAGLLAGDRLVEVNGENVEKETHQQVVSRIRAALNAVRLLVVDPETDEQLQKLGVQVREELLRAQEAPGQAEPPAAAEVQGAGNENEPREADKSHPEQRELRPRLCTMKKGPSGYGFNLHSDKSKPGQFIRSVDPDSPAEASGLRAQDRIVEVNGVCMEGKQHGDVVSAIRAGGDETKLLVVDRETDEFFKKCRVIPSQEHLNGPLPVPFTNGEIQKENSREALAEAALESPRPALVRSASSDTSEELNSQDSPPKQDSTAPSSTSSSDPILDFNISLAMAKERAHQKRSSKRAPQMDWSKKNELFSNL
Method: as §1, §2, §3, §4, §5, §6, §7, §8, §9, §10, §11

Tip = molecular target: T23, Tip (Homo sapiens, UniProt O14907)
T23 construct: made in house
T23 sequence (O14907 15-112): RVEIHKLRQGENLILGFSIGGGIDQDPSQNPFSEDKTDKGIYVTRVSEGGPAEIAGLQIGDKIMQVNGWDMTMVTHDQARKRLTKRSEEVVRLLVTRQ
Method: as §1, §2, §3, §4, §5, §6, §7, §8, §9, §10, §11

T1 sequence (Q8TEW8 with tags, fused parts or gaps): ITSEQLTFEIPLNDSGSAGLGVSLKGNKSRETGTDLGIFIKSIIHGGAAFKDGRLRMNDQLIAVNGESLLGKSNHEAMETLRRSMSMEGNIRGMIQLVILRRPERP

YGRKKRRQRRRRQGLERILL-OH [Peptide 1904]
Intensity of Hit, PDZ PAR3L d3 (PAR3L d3): STRONG
Intensity of Hit, PDZ Magi1 d1 (Magi1 d1): STRONG
Intensity of Hit, PDZ INADL d3 (INADL d3): STRONG
Intensity of Hit, PDZ KIAA0316 (KIAA0316): STRONG
Intensity of Hit, PDZ MUPP1d11 (MUPP1d11): STRONG
Intensity of Hit, PDZ GORASP1 d1 (GORASP1 d1): STRONG
Intensity of Hit, PDZ NOS1 (NOS1): STRONG
Intensity of Hit, PDZ RIM2 (RIM2): STRONG
Intensity of Hit, PDZ RhophilinLike (RhophilinLike): STRONG
Intensity of Hit, PDZ MUPP1d3 (MUPP1d3): WEAK
Intensity of Hit, PDZ PAR6 beta (PAR6 beta): STRONG
Intensity of Hit, PDZ AIPC d1 (AIPC d1): STRONG
Intensity of Hit, PDZ MINT1 d1, 2 (MINT1 d1, 2): STRONG
Intensity of Hit, PDZ SITAC-18 d1 (SITAC-18 d1): STRONG
Intensity of Hit, PDZ SITAC-18 d2 (SITAC-18 d2): STRONG
Intensity of Hit, PDZ ZO-1 d4 (ZO-1 d4): STRONG

YGRKKRRQRRRRQGFERALL-OH [Peptide 1905]
Intensity of Hit, PDZ PICK1 F.L. (PICK1 F.L.): STRONG
Intensity of Hit, PDZ Shank 1 (Shank 1): STRONG
Intensity of Hit, PDZ Shank 3 (Shank 3): STRONG
Intensity of Hit, PDZ EBP50 d1 (EBP50 d1): STRONG
Intensity of Hit, PDZ Shank 2 (Shank 2): STRONG
Intensity of Hit, PDZ EBP50 (EBP50): STRONG
Intensity of Hit, PDZ Tip (Tip): STRONG
